# In ChEMBL document CHEMBL4842393, “Targeting KRAS G12D Mutant for the Potential Treatment of Pancreatic Cancer” (ACS Med Chem Lett, 2021):
# pIC50: −log10 of the molar value.
# Biological target: GTPase KRas (Homo sapiens, UniProt P01116, G12D)
# Assay: Displacement of Cy5-labelled tracer from biotinylated GDP-loaded human recombinant KRAS G12D mutant (1 to 169 residues) measured after 60 mins by TR-FRET assay
smiles,measurement,value
Oc1cc(-c2ncc3c(N4CC5CCC(C4)N5)nc(OCC45CCCN4C(CF)CC5)nc3c2F)c2ccccc2c1 (stereo unspecified),pIC50,10.00
